Consider 9 molecules from ChEMBL document CHEMBL1123717, “Folate analogues as inhibitors of thymidylate synthase” (J Med Chem, 1987).

Structures are written as SMILES. pIC50, pKi: −log10 of the molar value.

Assay [1] deals with T1, Thymidylate synthase (Homo sapiens, UniProt P04818). Put plainly: Ability to inhibit thymidylate synthase derived from human leukemia K562 cells. The class given is cell-based.
For assay [2], the target named is T1, Thymidylate synthase. Put plainly: Inhibitory activity against human thymidylate synthase derived either from HeLa or KB cells. The class given is cell-based.
Assay [3] concerns the target T2, Thymidylate synthase (Lactobacillus casei, UniProt P00469).
T2 sequence (P00469 whole entry): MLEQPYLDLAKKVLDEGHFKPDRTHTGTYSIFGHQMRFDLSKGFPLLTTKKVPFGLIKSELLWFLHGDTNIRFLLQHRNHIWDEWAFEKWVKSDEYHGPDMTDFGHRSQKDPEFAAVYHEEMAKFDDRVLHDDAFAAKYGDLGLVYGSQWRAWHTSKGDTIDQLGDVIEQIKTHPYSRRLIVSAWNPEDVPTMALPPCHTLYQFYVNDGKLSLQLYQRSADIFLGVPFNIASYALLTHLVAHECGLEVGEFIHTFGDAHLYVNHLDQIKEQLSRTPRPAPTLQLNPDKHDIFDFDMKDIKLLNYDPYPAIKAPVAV
Put plainly: Ability to inhibit thymidylate synthase derived from Lactobacillus casei. The arrangement: species or system Lacticaseibacillus casei.

Assay [4] addresses T1, Thymidylate synthase. Briefly: Inhibitory constant of thymidylate synthase was determined in human AML cells. The class given is cell-based.

T1 sequence (P04818 whole entry): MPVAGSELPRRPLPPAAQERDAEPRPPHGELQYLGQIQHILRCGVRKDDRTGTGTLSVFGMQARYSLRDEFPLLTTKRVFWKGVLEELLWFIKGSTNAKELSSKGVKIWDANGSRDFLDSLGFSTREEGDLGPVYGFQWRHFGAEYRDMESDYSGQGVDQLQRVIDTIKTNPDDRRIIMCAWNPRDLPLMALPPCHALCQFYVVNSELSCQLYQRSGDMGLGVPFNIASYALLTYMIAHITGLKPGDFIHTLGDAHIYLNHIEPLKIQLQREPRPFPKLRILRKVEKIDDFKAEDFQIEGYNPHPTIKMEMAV

On to `CN(Cc1ccc2nc(N)[nH]c(=O)c2n1)c1ccc(C(=O)N[C@@H](CCC(=O)O)C(=O)O)cc1`, for which the pIC50 in assay [1] was 5.60.
Still for that read-out and setting: under `Nc1nc(O)c2nc(CNc3ccc(C(=O)N[C@@H](CCC(=O)O)C(=O)O)cc3)ccc2n1` stands 4.26.
Still for that read-out and setting: under `C#CCN(Cc1ccc2nc(N)[nH]c(=O)c2n1)c1ccc(C(=O)N[C@@H](CCC(=O)O)C(=O)O)cc1` stands 5.62.
In assay [2], `C#CN(Cc1cnc2nc(N)nc(N)c2n1)c1ccc(C(=O)NC(CCC(=O)O)C(=O)O)cc1` (stereo unspecified) had a pIC50 of 7.70.
`CN(Cc1ccc2nc(N)[nH]c(=O)c2c1)c1ccc(C(=O)N[C@@H](CCC(=O)O)C(=O)O)cc1` showed a pIC50 in assay [1] of 6.54.
In assay [1], `C#CCN(Cc1ccc2nc(N)nc(N)c2n1)c1ccc(C(=O)NC(CCC(=O)O)C(=O)O)cc1` (stereo unspecified) had a pIC50 of 5.90.
For the molecule `C#CCN(Cc1cnc2nc(N)[nH]c(=O)c2n1)c1ccc(C(=O)N[C@@H](CCC(=O)O)C(=O)O)cc1`, the pIC50 in assay [1] was 5.26; in assay [3], 5.41.
`Nc1nc2ncc(CNc3ccc(C(=O)N[C@@H](CCC(=O)O)C(=O)O)cc3)nc2c(=O)[nH]1` [FOLIC ACID] showed a pIC50 in assay [1] of 3.54. Besides, the negative logarithm of the Ki (pKi) in assay [4] was 4.40.
For `CN(Cc1cnc2nc(N)[nH]c(=O)c2n1)c1ccc(C(=O)N[C@@H](CCC(=O)O)C(=O)O)cc1` [METHOPTERINE], in assay [4], the negative logarithm of the Ki (pKi) was 6.00.
